Test results: ChEMBL document CHEMBL4507299, “Data for DCP probe PF-04554878” (2021)

Columns and labels:
[1] = tested on: Tyrosine-protein kinase ABL1 (Homo sapiens), P00519 [F317I]
[2] = tested on: Tyrosine-protein kinase ABL1 (Homo sapiens), P00519 [F317I]; remark: listed apart in the source
[3] = biological target: Bone morphogenetic protein receptor type-1B (Homo sapiens) (UniProt O00238)
[4] = biological target: Mitotic checkpoint serine/threonine-protein kinase BUB1 (Homo sapiens) (UniProt O43683)
[5] = biological target: Calcium/calmodulin-dependent protein kinase type 1 (Homo sapiens) (UniProt Q14012)
[6] = biological target: Calcium/calmodulin-dependent protein kinase type 1G (Homo sapiens) (UniProt Q96NX5)
[7] = biological target: Cyclin-dependent kinase 4 (Homo sapiens) (UniProt P11802)
[8] = biological target: Casein kinase I isoform alpha (Homo sapiens) (UniProt P48729)
[9] = biological target: Serine/threonine-protein kinase MRCK gamma (Homo sapiens) (UniProt Q6DT37)
[10] = biological target: Serine/threonine-protein kinase 17A (Homo sapiens) (UniProt Q9UEE5)
[11] = biological target: Dual specificity tyrosine-phosphorylation-regulated kinase 2 (Homo sapiens) (UniProt Q92630)
[12] = biological target: Ephrin type-A receptor 1 (Homo sapiens) (UniProt P21709)
[13] = biological target: Fibroblast growth factor receptor 3 (Homo sapiens) (UniProt P22607)
[14] = biological target: Glycogen synthase kinase-3 beta (Homo sapiens, UniProt P49841)
[15] = biological target: Serine/threonine-protein kinase haspin (Homo sapiens) (UniProt Q8TF76)
[16] = biological target: T1, Inhibitor of nuclear factor kappa-B kinase subunit beta (Homo sapiens) (UniProt O14920)
T1 sequence (whole entry): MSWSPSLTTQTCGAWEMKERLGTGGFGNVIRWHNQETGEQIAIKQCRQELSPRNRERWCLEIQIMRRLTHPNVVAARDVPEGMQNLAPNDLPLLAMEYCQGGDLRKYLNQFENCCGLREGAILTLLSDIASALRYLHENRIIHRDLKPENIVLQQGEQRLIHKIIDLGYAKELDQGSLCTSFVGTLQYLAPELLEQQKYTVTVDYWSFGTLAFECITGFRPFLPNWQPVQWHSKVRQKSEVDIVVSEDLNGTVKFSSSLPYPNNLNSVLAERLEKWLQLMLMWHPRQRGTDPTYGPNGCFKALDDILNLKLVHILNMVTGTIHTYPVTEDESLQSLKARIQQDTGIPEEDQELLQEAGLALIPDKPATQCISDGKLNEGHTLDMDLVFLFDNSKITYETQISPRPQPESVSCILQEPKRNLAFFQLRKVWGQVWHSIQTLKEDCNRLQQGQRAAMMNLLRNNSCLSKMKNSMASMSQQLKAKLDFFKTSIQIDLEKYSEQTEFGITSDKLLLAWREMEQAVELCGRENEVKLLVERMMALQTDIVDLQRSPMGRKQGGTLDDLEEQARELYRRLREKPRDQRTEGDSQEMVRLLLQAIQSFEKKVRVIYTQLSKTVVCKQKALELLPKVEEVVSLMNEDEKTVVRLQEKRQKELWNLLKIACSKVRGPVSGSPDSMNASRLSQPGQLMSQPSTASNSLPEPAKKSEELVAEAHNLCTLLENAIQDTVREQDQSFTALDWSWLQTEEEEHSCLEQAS

[17] = biological target: Mitogen-activated protein kinase kinase kinase 4 (Homo sapiens) (UniProt Q9Y6R4)
[18] = biological target: Mitogen-activated protein kinase kinase kinase kinase 3 (Homo sapiens) (UniProt Q8IVH8)
[19] = biological target: Myosin light chain kinase 2, skeletal/cardiac muscle (Homo sapiens) (UniProt Q9H1R3)
[20] = biological target: Serine/threonine-protein kinase Nek3 (Homo sapiens) (UniProt P51956)
[21] = biological target: Serine/threonine-protein kinase NLK (Homo sapiens) (UniProt Q9UBE8)
[22] = biological target: Calcium-dependent protein kinase 1 (Plasmodium falciparum) (UniProt P62344)
[23] = tested on: Phosphatidylinositol 4,5-bisphosphate 3-kinase catalytic subunit alpha isoform (Homo sapiens), P42336 [C420R]
[24] = biological target: cAMP-dependent protein kinase catalytic subunit alpha (Homo sapiens) (UniProt P17612)
[25] = biological target: Protein kinase C iota type (Homo sapiens) (UniProt P41743)
[26] = biological target: cGMP-dependent protein kinase 2 (Homo sapiens) (UniProt Q13237)
[27] = biological target: Receptor-interacting serine/threonine-protein kinase 2 (Homo sapiens) (UniProt O43353)
[28] = biological target: Dual serine/threonine and tyrosine protein kinase (Homo sapiens) (UniProt Q6XUX3)
[29] = biological target: Serine/threonine-protein kinase TAO2 (Homo sapiens) (UniProt Q9UL54)
[30] = biological target: Tyrosine-protein kinase receptor Tie-1 (Homo sapiens) (UniProt P35590)
[31] = biological target: Serine/threonine-protein kinase tousled-like 1 (Homo sapiens) (UniProt Q9UKI8)
[32] = biological target: High affinity nerve growth factor receptor (Homo sapiens) (UniProt P04629)
[33] = biological target: NT-3 growth factor receptor (Homo sapiens) (UniProt Q16288)
[34] = biological target: Serine/threonine-protein kinase ULK3 (Homo sapiens) (UniProt Q6PHR2)
[35] = biological target: Tyrosine-protein kinase ZAP-70 (Homo sapiens) (UniProt P43403)
[36] = Compound concentration 100.0 nM
[37] = Compound concentration 1000.0 nM

Tyrosine-protein kinase ABL1 (Homo sapiens), P00519 [F317I], sequence (P00519 whole entry F317I): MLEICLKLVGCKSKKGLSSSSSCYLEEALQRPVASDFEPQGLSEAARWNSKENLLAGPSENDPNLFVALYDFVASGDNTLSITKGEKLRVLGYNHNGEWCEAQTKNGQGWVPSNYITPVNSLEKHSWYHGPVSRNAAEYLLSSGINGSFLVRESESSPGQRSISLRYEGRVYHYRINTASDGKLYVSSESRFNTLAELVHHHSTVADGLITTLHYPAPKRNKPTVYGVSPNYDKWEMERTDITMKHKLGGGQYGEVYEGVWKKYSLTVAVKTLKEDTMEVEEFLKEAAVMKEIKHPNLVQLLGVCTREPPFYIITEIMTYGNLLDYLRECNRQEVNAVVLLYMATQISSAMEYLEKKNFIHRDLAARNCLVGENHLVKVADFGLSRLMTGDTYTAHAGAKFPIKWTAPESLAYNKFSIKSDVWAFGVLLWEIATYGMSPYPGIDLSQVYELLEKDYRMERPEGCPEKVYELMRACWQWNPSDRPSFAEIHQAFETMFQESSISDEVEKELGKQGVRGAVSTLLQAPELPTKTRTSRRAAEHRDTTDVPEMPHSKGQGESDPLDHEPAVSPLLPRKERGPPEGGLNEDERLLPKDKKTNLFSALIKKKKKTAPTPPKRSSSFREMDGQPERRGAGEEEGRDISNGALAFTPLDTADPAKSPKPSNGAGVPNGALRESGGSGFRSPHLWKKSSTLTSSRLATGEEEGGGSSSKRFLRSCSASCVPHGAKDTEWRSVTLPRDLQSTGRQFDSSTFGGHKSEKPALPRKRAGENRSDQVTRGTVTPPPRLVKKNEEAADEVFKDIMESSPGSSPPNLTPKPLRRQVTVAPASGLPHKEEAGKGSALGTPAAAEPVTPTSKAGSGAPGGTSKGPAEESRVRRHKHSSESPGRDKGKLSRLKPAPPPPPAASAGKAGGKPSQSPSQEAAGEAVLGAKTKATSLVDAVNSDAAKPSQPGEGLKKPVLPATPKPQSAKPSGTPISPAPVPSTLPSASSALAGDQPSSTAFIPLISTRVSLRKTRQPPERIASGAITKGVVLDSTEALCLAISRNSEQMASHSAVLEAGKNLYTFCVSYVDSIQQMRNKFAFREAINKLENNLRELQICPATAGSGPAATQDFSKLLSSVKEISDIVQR
Serine/threonine-protein kinase MRCK gamma (Homo sapiens), sequence (Q6DT37 whole entry): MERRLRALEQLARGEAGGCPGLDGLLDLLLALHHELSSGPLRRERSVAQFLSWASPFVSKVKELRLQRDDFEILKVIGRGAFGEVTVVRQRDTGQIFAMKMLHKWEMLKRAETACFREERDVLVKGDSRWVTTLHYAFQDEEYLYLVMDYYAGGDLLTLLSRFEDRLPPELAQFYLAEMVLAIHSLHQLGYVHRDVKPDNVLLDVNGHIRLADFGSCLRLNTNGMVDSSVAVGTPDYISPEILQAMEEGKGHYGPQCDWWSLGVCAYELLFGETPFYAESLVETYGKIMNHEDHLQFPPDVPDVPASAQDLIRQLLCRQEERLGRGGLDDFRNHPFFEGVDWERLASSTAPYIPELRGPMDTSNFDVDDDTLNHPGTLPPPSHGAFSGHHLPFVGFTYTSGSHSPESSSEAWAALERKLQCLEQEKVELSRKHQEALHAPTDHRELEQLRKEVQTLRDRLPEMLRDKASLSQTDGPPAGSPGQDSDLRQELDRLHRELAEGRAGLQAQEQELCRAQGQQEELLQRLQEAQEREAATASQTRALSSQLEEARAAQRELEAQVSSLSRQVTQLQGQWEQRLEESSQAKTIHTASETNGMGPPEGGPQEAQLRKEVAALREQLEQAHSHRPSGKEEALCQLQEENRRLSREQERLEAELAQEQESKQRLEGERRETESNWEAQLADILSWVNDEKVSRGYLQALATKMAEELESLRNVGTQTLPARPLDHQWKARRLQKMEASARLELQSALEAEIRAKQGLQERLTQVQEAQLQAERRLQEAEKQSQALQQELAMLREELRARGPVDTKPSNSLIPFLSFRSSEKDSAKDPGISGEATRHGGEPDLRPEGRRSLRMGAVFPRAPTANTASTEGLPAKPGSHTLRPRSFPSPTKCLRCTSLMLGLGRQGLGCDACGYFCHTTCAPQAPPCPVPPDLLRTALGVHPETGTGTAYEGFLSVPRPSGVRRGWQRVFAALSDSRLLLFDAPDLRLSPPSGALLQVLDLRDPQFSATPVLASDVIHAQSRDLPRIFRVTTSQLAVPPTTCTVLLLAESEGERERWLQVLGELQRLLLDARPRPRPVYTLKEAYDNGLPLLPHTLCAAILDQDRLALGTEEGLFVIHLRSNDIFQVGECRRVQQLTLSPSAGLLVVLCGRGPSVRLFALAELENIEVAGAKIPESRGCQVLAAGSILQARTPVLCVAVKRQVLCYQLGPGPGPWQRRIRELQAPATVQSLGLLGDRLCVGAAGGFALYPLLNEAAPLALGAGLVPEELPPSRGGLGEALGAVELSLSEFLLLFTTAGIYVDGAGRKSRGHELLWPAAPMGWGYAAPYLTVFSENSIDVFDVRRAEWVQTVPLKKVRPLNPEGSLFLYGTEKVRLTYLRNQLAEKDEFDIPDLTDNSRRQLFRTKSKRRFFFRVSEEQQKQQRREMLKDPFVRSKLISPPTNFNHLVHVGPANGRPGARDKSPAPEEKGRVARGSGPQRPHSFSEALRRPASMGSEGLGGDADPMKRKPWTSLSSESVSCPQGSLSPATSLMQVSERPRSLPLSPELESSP
Calcium-dependent protein kinase 1 (Plasmodium falciparum), sequence (P62344 2-524 limits assumed): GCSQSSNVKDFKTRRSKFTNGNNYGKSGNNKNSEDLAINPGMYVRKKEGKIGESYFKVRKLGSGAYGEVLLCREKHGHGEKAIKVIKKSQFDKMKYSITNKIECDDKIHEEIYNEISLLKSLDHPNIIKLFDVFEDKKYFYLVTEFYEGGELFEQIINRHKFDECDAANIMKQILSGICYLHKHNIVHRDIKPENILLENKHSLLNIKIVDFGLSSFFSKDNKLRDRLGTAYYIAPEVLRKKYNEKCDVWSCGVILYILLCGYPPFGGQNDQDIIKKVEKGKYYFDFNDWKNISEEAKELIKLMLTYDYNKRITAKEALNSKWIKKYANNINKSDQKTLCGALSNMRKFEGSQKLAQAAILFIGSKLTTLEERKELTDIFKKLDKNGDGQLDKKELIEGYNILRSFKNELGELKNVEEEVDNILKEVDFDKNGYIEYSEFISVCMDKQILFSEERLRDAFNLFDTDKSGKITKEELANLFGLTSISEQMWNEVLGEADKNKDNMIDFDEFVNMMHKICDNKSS
Mitotic checkpoint serine/threonine-protein kinase BUB1 (Homo sapiens), sequence (O43683 whole entry, looked up): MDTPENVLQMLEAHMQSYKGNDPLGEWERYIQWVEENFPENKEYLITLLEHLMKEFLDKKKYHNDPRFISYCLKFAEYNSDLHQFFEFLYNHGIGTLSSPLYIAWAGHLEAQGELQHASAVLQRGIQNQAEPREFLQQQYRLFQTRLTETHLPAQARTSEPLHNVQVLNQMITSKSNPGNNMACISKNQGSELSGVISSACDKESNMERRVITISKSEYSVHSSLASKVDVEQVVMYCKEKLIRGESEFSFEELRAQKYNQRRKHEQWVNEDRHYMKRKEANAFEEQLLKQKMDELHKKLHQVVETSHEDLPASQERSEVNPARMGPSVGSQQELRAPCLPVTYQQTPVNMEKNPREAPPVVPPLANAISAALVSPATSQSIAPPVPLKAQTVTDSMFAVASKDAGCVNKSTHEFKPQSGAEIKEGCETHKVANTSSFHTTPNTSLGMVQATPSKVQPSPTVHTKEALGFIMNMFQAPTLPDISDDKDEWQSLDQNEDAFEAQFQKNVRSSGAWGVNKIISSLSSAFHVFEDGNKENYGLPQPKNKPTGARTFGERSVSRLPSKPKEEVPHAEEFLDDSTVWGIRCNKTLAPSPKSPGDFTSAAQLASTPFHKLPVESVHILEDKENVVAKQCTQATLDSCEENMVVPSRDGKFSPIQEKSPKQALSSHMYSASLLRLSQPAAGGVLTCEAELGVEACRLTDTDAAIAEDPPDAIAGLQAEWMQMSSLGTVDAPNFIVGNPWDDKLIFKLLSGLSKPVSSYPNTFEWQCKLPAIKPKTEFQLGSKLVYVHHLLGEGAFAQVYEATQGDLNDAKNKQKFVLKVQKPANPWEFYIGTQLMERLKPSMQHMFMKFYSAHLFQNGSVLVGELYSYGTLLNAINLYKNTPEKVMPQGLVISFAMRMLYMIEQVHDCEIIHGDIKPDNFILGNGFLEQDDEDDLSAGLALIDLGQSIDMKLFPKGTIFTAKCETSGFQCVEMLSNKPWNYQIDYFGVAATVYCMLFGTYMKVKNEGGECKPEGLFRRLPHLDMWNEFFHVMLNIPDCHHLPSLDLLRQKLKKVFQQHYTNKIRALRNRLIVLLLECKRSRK
Serine/threonine-protein kinase 17A (Homo sapiens), sequence (Q9UEE5 whole entry): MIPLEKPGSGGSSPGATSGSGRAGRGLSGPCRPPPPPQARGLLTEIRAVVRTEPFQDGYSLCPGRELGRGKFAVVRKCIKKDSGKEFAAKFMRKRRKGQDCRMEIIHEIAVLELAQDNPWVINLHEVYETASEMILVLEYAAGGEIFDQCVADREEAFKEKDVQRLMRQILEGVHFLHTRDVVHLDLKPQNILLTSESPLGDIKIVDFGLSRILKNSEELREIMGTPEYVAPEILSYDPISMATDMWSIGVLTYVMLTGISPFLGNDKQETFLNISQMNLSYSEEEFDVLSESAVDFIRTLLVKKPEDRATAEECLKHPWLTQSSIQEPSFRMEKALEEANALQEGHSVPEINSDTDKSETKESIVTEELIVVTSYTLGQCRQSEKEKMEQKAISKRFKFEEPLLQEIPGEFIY
Casein kinase I isoform alpha (Homo sapiens), sequence (P48729 2-337 limits assumed): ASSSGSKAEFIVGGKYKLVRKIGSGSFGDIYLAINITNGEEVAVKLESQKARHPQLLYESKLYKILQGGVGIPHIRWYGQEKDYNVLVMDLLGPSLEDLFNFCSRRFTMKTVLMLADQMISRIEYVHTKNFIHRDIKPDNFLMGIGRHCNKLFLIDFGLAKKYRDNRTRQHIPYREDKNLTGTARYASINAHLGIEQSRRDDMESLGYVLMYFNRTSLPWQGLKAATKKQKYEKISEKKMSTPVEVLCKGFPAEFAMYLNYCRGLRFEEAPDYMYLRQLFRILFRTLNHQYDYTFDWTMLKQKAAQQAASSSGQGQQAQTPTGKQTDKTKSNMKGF

CNC(=O)c1ccc(Nc2ncc(C(F)(F)F)c(NCc3nccnc3N(C)S(C)(=O)=O)n2)cc1 [DEFACTINIB]
residual activity [1, 36]: 100% | residual activity [2, 36]: 100% | residual activity [3, 36]: 65% | residual activity [4, 36]: 100% | residual activity [5, 36]: 100% | residual activity [6, 36]: 89% | residual activity [7, 36]: 100% | residual activity [8, 36]: 94% | residual activity [9, 36]: 80% | residual activity [10, 36]: 19% | residual activity [11, 36]: 76% | residual activity [12, 36]: 98% | residual activity [13, 36]: 78% | residual activity [14, 36]: 87% | residual activity [15, 36]: 100% | residual activity [16, 36]: 100% | residual activity [17, 36]: 100% | residual activity [18, 36]: 95% | residual activity [19, 36]: 63% | residual activity [20, 36]: 100% | residual activity [21, 36]: 100% | residual activity [22, 36]: 85% | residual activity [23, 36]: 100% | residual activity [24, 36]: 100% | residual activity [25, 36]: 84% | residual activity [26, 36]: 100% | residual activity [27, 36]: 100% | residual activity [28, 36]: 87% | residual activity [29, 36]: 92% | residual activity [30, 36]: 47% | residual activity [31, 36]: 73% | residual activity [32, 36]: 13% | residual activity [33, 36]: 41% | residual activity [34, 36]: 75% | residual activity [35, 36]: 100%

CN(c1ccnc(CNc2nc(Nc3ccc4c(c3)CC(=O)N4)ncc2C(F)(F)F)n1)S(C)(=O)=O [PF-00911705]
residual activity [1, 37]: 100% | residual activity [2, 37]: 79% | residual activity [3, 37]: 3.6% | residual activity [4, 37]: 91% | residual activity [5, 37]: 72% | residual activity [6, 37]: 95% | residual activity [7, 37]: 63% | residual activity [8, 37]: 81% | residual activity [9, 37]: 93% | residual activity [10, 37]: 11% | residual activity [11, 37]: 37% | residual activity [12, 37]: 86% | residual activity [13, 37]: 71% | residual activity [14, 37]: 57% | residual activity [15, 37]: 76% | residual activity [16, 37]: 78% | residual activity [17, 37]: 91% | residual activity [18, 37]: 87% | residual activity [19, 37]: 53% | residual activity [20, 37]: 60% | residual activity [21, 37]: 98% | residual activity [22, 37]: 84% | residual activity [23, 37]: 91% | residual activity [24, 37]: 81% | residual activity [25, 37]: 55% | residual activity [26, 37]: 68% | residual activity [27, 37]: 82% | residual activity [28, 37]: 53% | residual activity [29, 37]: 58% | residual activity [30, 37]: 17% | residual activity [31, 37]: 79% | residual activity [32, 37]: 10% | residual activity [33, 37]: 45% | residual activity [34, 37]: 25% | residual activity [35, 37]: 61%
